According to ChEMBL document CHEMBL1201862, “PubChem BioAssay data set” (2004):
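Method: 48-hour compound exposure of cells in 96-well plates, five concentrations, linear interpolation of endpoints. GI50 = concentration required for 50% inhibition of growth.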 The source made the active and inactive calls. Cut-off read from the data, not from the text of the source: active = GI50 up to about 1.1 µM and inactive = higher.

Columns and labels:
Experiment in all cases: inhibition of tumour cell growth, NCI panel, 48 h
SK-OV-3 = tested on: SK-OV-3
MDA-MB-231 = tested on: MDA-MB-231
A498 = tested on: A498
NCI-H23 = tested on: NCI-H23
KM12 = tested on: KM12
HCC 2998 = tested on: HCC 2998
RXF 393 = tested on: RXF 393
K562 = tested on: K562
DU-145 = tested on: DU-145
OVCAR-8 = tested on: OVCAR-8
SR = tested on: SR
NCI/ADR-RES = tested on: NCI/ADR-RES
HOP-62 = tested on: HOP-62
NCI-H460 = tested on: NCI-H460
NCI-H226 = tested on: NCI-H226
MOLT-4 = tested on: MOLT-4
M14 = tested on: M14
Malme-3M = tested on: Malme-3M
IGROV-1 = tested on: IGROV-1
HT-29 = tested on: HT-29

Measured: GI50

CCOC(=O)c1c(N2CCCC2)[nH]c(=O)c(C(c2ccc(Cl)c([N+](=O)[O-])c2)c2c(O)c(C(=O)OCC)c(N3CCCC3)[nH]c2=O)c1O
inactive: SK-OV-3 85.5 µM | MDA-MB-231 22 µM | A498 33 µM | NCI-H23 22 µM | KM12 > 100 µM | HCC 2998 > 100 µM | RXF 393 31.7 µM | K562 63.2 µM | DU-145 60.8 µM | OVCAR-8 15.5 µM | SR 40.3 µM | NCI/ADR-RES 28.7 µM | HOP-62 27.4 µM | NCI-H460 > 100 µM | NCI-H226 63.5 µM | MOLT-4 46.6 µM | M14 20.8 µM | Malme-3M 38.9 µM

CC(=O)N1CCn2c1nc1cc(Cl)ccc12
inactive: SK-OV-3 25.1 µM | MDA-MB-231 34.5 µM | IGROV-1 37.6 µM | A498 > 100 µM | KM12 > 100 µM | HCC 2998 > 100 µM | RXF 393 20.8 µM | K562 > 100 µM | DU-145 33.4 µM | HT-29 > 100 µM | OVCAR-8 74.3 µM | SR > 100 µM | NCI/ADR-RES > 100 µM | HOP-62 19.4 µM | NCI-H460 77.6 µM | NCI-H226 94.8 µM | MOLT-4 > 100 µM | M14 > 100 µM | Malme-3M > 100 µM

Cc1nn(C)c2nc3ccc(Cl)cc3c(-c3ccccc3)c12
inactive: SK-OV-3 > 100 µM | MDA-MB-231 > 100 µM | A498 > 100 µM | NCI-H23 > 100 µM | KM12 > 100 µM | HCC 2998 > 100 µM | RXF 393 > 100 µM | K562 > 100 µM | DU-145 > 100 µM | HT-29 > 100 µM | OVCAR-8 > 100 µM | SR > 100 µM | NCI/ADR-RES > 100 µM | HOP-62 > 100 µM | NCI-H460 > 100 µM | NCI-H226 > 100 µM | MOLT-4 > 100 µM | M14 > 100 µM | Malme-3M > 100 µM

CC(C)C(Sc1nc(N)nc2nc[nH]c12)C(=O)O (stereo unspecified)
inactive: SK-OV-3 > 100 µM | MDA-MB-231 > 100 µM | IGROV-1 > 100 µM | A498 > 100 µM | NCI-H23 > 100 µM | KM12 > 100 µM | HCC 2998 > 100 µM | RXF 393 > 100 µM | K562 > 100 µM | DU-145 > 100 µM | HT-29 > 100 µM | OVCAR-8 > 100 µM | SR > 100 µM | NCI/ADR-RES > 100 µM | HOP-62 > 100 µM | NCI-H460 > 100 µM | NCI-H226 > 100 µM | M14 > 100 µM | Malme-3M > 100 µM

O=C(CCc1ccccc1CO)NCCc1ccccc1
inactive: SK-OV-3 > 100 µM | MDA-MB-231 > 100 µM | IGROV-1 > 100 µM | A498 > 100 µM | NCI-H23 > 100 µM | KM12 > 100 µM | HCC 2998 > 100 µM | RXF 393 > 100 µM | K562 > 100 µM | DU-145 > 100 µM | HT-29 > 100 µM | OVCAR-8 > 100 µM | SR > 100 µM | NCI/ADR-RES > 100 µM | HOP-62 > 100 µM | NCI-H460 > 100 µM | NCI-H226 > 100 µM | MOLT-4 > 100 µM | M14 > 100 µM

O=C(CN1C(=O)c2ccccc2C1=O)NC1(C(=O)O)CCCC1
inactive: SK-OV-3 > 100 µM | MDA-MB-231 > 100 µM | IGROV-1 > 100 µM | A498 > 100 µM | NCI-H23 > 100 µM | KM12 > 100 µM | HCC 2998 > 100 µM | RXF 393 > 100 µM | K562 > 100 µM | DU-145 > 100 µM | HT-29 > 100 µM | OVCAR-8 > 100 µM | SR > 100 µM | NCI/ADR-RES > 100 µM | HOP-62 > 100 µM | NCI-H226 > 100 µM | MOLT-4 > 100 µM | M14 > 100 µM | Malme-3M > 100 µM

O=c1[nH][nH]c(=O)n1Cc1ccccc1
inactive: SK-OV-3 > 100 µM | MDA-MB-231 > 100 µM | A498 > 100 µM | NCI-H23 > 100 µM | KM12 > 100 µM | HCC 2998 > 100 µM | RXF 393 > 100 µM | K562 > 100 µM | DU-145 > 100 µM | HT-29 > 100 µM | OVCAR-8 > 100 µM | SR > 100 µM | NCI/ADR-RES > 100 µM | NCI-H460 > 100 µM | NCI-H226 > 100 µM | MOLT-4 > 100 µM | M14 > 100 µM | Malme-3M > 100 µM
